Measured values as given in patent publication US20170224643A1, “METHOD FOR AVOIDING OR INHIBITION OF DYSKINESIA” (Research Foundation of the City University of New York, priority 2016, published 2017).
“Also recorded” adds a separate entry of the source. Blank lines part the entries; values can stand above or below the molecule they belong to.

What was measured:
[1] = test system: aphakia mouse line, a genetic model of LID; experiment: aphakia mouse model of LID, three paw dyskinesia scoring; assay type: in vivo, mice; conditions: for effect on AIMs induced by daily L-Dopa: aphakia mouse line
Description: Inhibition of Smo by cyclopamine in thegenetic “aphakia ” model of dyskinesia INCREASES LIDs. Analogous to the use of the unilateral 6-OHDA model of LID, we tested whether Shh signaling effects the formation and display of LID in an independent, genetic model, the well-studied Aphakia mouse model. […] The hypo-dopaminergic state of these animals is thought to be similar to the dopaminergic state of Parkinson's disease patients. It is well established that these mice readily develop LID upon semi chronic dosing with L-Dopa. […] Daily systemic injections of L-Dopa (20 mg/kg, IP) results in progressive display of 3 paw dyskinesia over 7 days (FIG. 3, white bars. Co-injection of cyclopamine (5 mg/kg, IP) together with L-Dopa (20 mg/kg, IP) on day 8 results in a roughly 3 fold increase in 3-paw dyskinesia compared to day 7 (FIG. 3, see d8, black bar). Further daily co-injections of cyclopamine together with L-Dopa (5 mg/kg, IP and 20 mg/kg, IP, resp.) results in further increases in dyskinesia scores reaching 7 fold the score obtained after 7 days of L-Dopa only dosing (FIG. 3, see d11, black bar compared to d7, white bar).
Stimulation of Smo by SAG in a genetic model of dyskinesia DECREASES LIDs. Analogous to testing the effect of cyclopamine, we used the aphakia mouse line to determine whether stimulation of Shh signaling might reduce the display of established LID. We injected daily for 28 days L-Dopa (20 mg/kg; IP). On day 29 we co-injected SAG (20 mg/kg, IP) together with L-Dopa (20 mg/kg, IP). We scored 3 paw dyskinesia at day 28 (FIG. 9: white bar) and day 29 (FIG. 9: black bar) and find a roughly 2 fold reduction in dyskinesia upon SAG dosing.
Movement disorders: official journal of the Movement Disorder Society, 2015. 30(6): p. 788-95.). Analogous to testing the effects of the stimulation of Smo by SAG in the aphakia mouse model of dyskinesia described above we injected daily L-Dopa (25 mg/kg, IP) for 21 days. All animals developed robust dyskinesia scores. On day 21 animals were randomly assigned into 4 groups.

[2] = test system: two models of LID (unilateral 6-OHDA model and aphakia mouse line); experiment: meta-analysis of dyskinesia measurements across two models of LID, ratio over L-Dopa only controls; assay type: in vivo, mice; conditions: for effect on dyskinesia (words): 6-OHDA model and aphakia mouse line, compared to controls; for reduction in expression of established dyskinesia over L-Dopa only controls: acute stimulation of Smo, combined across models
Description: Meta-analysis of dyskinesia measurements across two models of LID and three structurally distinct compounds (cyclopamine, SAG, purmorphamine):. A ratiometric expression of LID after treatment with Smo antagonist or agonists over L-Dopa only treated controls allows applicant to present results combined across two distinct models of dyskinesia and three distinct compounds. Setting dyskinesia scores observed in L-Dopa only treated controls as 1 (FIG. 11: dotted line and white bar), we find that inhibition of Smo by cyclopamine results in a 70% INCREASE of dyskinesia (FIG. 11: black bar labeled “a”). Conversely, acute stimulation of Smo by SAG leads to a roughly 2 fold REDUCTION in the expression of established dyskinesia (FIG. 11, black bar labeled “b”) and semi chronic daily dosing with SAG together with L-Dopa (“adjuvants” strategy) leads to about 70% reduction in the formation and display of LIDs (FIG. 11, black bar labeled “c” Consistent and similar to the effect of SAGthe acute stimulation of Smo with Purmorphamine leads to a roughly 2 fold REDUCTION in the display of established LID (FIG. 11, black bar labeled “d”).

[3] = test system: Shh-nLacZ^C/C/Dat-Cre mice; experiment: L-Dopa induced dyskinesia in mice with genetic ablation of Shh from dopamine neurons; assay type: in vivo
[4] = test system: unilateral 6-OHDA model of LID; experiment: unilateral 6-OHDA model of L-Dopa induced dyskinesia, abnormal induced movements (AIMs) scoring; assay type: in vivo, mice
Description: (§1) Assessing dopamine hyper-sensitivity in the unilateral 6-OHDA model of LID. The well-established unilateral 6-OHDA model of LIDs was used in which the injection of the neurotoxin results in unilateral DA hypersensitivity due to a greater than 80% DA neuron degeneration, and subsequent dopamine hypersensitivity. Two weeks after 6-OHDA injection, the degree of functional deficits are quantified by assessing contralateral paw use in a “cylinder test” (FIG. 1). In untreated, 6-OHDA injected animals contralateral paw use during rearing at the glass wall is reduced from random (50%, dotted line) due to the dopaminergic lesion and resulting reduced dopamine secretion (FIG. 1, white bars). Upon dopamine substitution by a single dose of L-Dopa contralateral paw use is increased above random (50% dotted line) due to dopamine hypersensitivity that developed in response to reduced dopamine levels (FIG. 1 black bars).
Inhibition of Smo by cyclopamine INCREASES LIDs After the functional assessment of dopaminergic denervation in the 6-OHDA model of LIDS, LIDs are induced by daily injections of L-Dopa (5 mg/kg, IP) for 13 days followed by quantification of dyskinesia. Abnormal movements are assessed for 1 min every 20 min, over a period of 120 min immediately after L-DOPA administration coinciding with the peak of L-Dopa dependent DA release. Abnormal induced movements (AIMs), clearly distinct from natural stereotyped behaviors (i.e., grooming, sniffing, rearing, and gnawing), are classified following a well-established scheme in the field of dyskinesia research into four different subtypes: locomotive (tight contralateral turns), axial (contralateral dystonic posture of the neck and upper body), limb (jerky and fluttering movements of the limb contralateral to the side of the lesion), and orofacial (vacuous jaw movements and tongue protrusions) (Sebastianutto, I., N. Maslava, C. R. Hopkins, and M. A. Cenci, Validation of an improved scale for rating l-DOPA-induced dyskinesia in the mouse and effects of specific dopamine receptor antagonists. Neurobiology of disease, 2016. 96: p. 156-170.). The co-administration of the Smo antagonist cyclopamine (5 mg/kg, IP) together with L-Dopa (5mg/kg, IP) at day 14 results in an approximately 80% increase in LIDs (FIG. 2, black bar) compared to L-Dopa alone (FIG. 2, white bar).
Stimulation of Smo by SAG DECREASES LIDs. Analogous to the experiments testing the inhibition of Smo, the unilateral 6-OHDA model of LIDs was used to test the effect of activating Smo signaling by the agonist SAG (FIG. 5). Two weeks after 6-OHDA injection, LIDs are induced by daily injections of L-Dopa (5 mg/kg, IP) for 16 days. A gradual increase in the display of dyskinesia was observed from day 4 to day 16 (FIG. 5, white bars). Consistent with the hypothesis and conversely to the facilitation of LIDs by the inhibition of Smo signaling, applicant found about a twofold REDUCTION in the display of LIDs upon the co-administration of a L-Dopa dose (5 mg/kg, […] 5, black bar).
Stimulation of Smo by Purmorphamine DECREASES LIDs. Analogous to the experiments testing the inhibition of Smo, the unilateral 6-OHDA model of LIDs was used to test the effect of activating Smo signaling by the agonist Purmorphamine (PUR). Two weeks after 6-OHDA injection, LIDs are induced by daily injections of L-Dopa (5 mg/kg, IP) for 14 days. A gradual increase in the display of dyskinesia was observed from day 4 to day 11 (FIG. 6, white bars). Consistent with the hypothesis and similar to the results with stimulating Smo with SAG and conversely to the facilitation of LIDs by the inhibition of Smo signaling, applicant finds about 40% REDUCTION in the display of LIDs upon the co-administration of a L-Dopa “challenge” dose (20 mg/kg; IP, i.e. 4×the regular dose) together with the Smo agonist Purmorphamine (15 mg/kg, IP) on day 15 (FIG. 6, black bar). […]

[5] = test system: unilateral 6-OHDA lesioned animals; experiment: cylinder test of contralateral paw use after unilateral 6-OHDA lesion; assay type: in vivo, mice; conditions: single dose L-Dopa 5 mg/kg IP; random = 50%
Method: FIG. 1 depicts assessment of 6-OHDA induced dopaminergic lesion. All animals of cohorts A and B were lesioned unilaterally by stereotactic injection of 6-OHDA into the dorso-lateral striatum. White bars: saline injected, black bars: L-dopa (5 mg/kg, IP) injected. Unilateral striatal 6-OHDA injection results in […] dopamine hypersensitivity. (**=p<0.001, ***=p<0.0001, t-test; n=9-11/treatment group; mean±SEM);
as §1

[6] = test system: Parkinson's Patients; conditions: Pahwa et al. 2015; cited from earlier work

SMILES: CC1=C2C[C@H]3[C@@H](CC=C4C[C@@H](O)CC[C@@]43C)[C@@H]2CC[C@]12O[C@@H]1C[C@H](C)CN[C@H]1[C@H]2C [cyclopamine]
effect on AIMs induced by daily L-Dopa [1]: increases abnormal induced movements
increase in 3-paw dyskinesia ([1]; cyclopamine 5 mg/kg IP with L-Dopa 20 mg/kg IP on day 8, compared to day 7): roughly 3 fold
dyskinesia score relative to 7 days of L-Dopa only dosing ([1]; daily cyclopamine 5 mg/kg IP with L-Dopa 20 mg/kg IP, d11 compared to d7): 7 fold
effect on dyskinesia (words) [2]: more rapid induction and stronger expression of dyskinesia
effect on dyskinesia (words) ([2]; listed as Cyclopamine): increases dyskinesia
increase of dyskinesia over L-Dopa only controls ([2]; combined across two models, controls set to 1): 70%

SMILES: CNC1CCC(N(Cc2cccc(-c3ccncc3)c2)C(=O)c2sc3ccccc3c2Cl)CC1 (stereo not shown) [SAG]
reduction in 3 paw dyskinesia ([1]; SAG 20 mg/kg IP with L-Dopa 20 mg/kg IP on day 29, vs day 28): roughly 2 fold
reduction in the display of LID ([1]; SAG 20 mg/kg IP with L-Dopa 25 mg/kg IP on day 21, compared to controls): 2 fold
effect on AIMs induced by daily L-Dopa [1]: decreases abnormal induced movements
reduction of dyskinesia score compared to day 20 ([3]; single injection SAG 20 mg/kg IP with L-Dopa on day 22, ratio mutants over controls): about 10 fold
LID scores after SAG wash-out ([4]; L-Dopa 5 mg/kg IP daily without SAG, d16 to d34, after 14 days of L-Dopa/SAG): indistinguishable from control groups
effect of chronic dosing with SAG together with L-Dopa on AIMs ([4]; SAG as adjuvant to daily L-Dopa): reversible, dose dependent build-up of a reduction of abnormal induced movements; also recorded: build-up of a reduction of abnormal induced movements over 7 days
reduction of dyskinesia ([4]; daily SAG 0.8 mg/kg IP with L-Dopa 5 mg/kg IP, day 12): 45%
reduction of dyskinesia ([4]; daily SAG 2.5 mg/kg with L-Dopa 5 mg/kg IP, 4 days of dosing): 50%
reduction of dyskinesia ([4]; daily SAG 7 mg/kg IP with L-Dopa 5 mg/kg IP, day 4): about 50%
reduction of dyskinesia ([4]; daily SAG 7 mg/kg IP with L-Dopa 5 mg/kg IP, day 14): about 80%
reduction of AIMS scores over the control group ([4]; daily SAG 10 mg/kg IP with L-Dopa 5 mg/kg IP for 14 days, day 14): greater than 2 fold
reduction in LIDs compared to controls ([4]; within subject escalation, SAG 15 mg/kg IP, day 51, L-Dopa 20 mg/kg IP): greater than 2 fold
effect on dyskinesia (words) [2]: decrease dyskinesia; also recorded: delayed and weaker/blunted induction and reduced expression of dyskinesia
reduction in expression of established dyskinesia over L-Dopa only controls [2]: roughly 2 fold
reduction in the formation and display of LIDs over L-Dopa only controls ([2]; semi chronic daily dosing with SAG together with L-Dopa): about 70%

formation of LID ([3]; daily L-Dopa 10 mg/kg IP, 16 days, mutants, not in litter controls): formation of LID over time
increase in LID scores ([4]; daily L-Dopa ramped up to 20 mg/kg IP, day 34 compared to day 27): 3 fold
SMILES: N[C@@H](Cc1ccc(O)c(O)c1)C(=O)O [L-Dopa]
contralateral paw use during rearing [5]: > 50%

SMILES: c1ccc2c(Oc3nc(Nc4ccc(N5CCOCC5)cc4)c4ncn(C5CCCCC5)c4n3)cccc2c1 [Purmorphamine]
reduction in the display of LIDs ([4]; Purmorphamine 15 mg/kg IP with L-Dopa challenge dose 20 mg/kg IP on day 15): about 40%
reduction of AIMs ([4]; single dose Purmorphamine 15 mg/kg IP co-injected with L-Dopa 20 mg/kg IP after daily L-Dopa 5 mg/kg IP): 2 fold
effect on dyskinesia (words) [2]: decrease dyskinesia
effect on dyskinesia (words) ([2]; listed as purmorphamine): delayed and weaker/blunted induction and reduced expression of dyskinesia
reduction in expression of established dyskinesia over L-Dopa only controls [2]: roughly 2 fold

SMILES: NC12CC3CC(CC(C3)C1)C2 [Amantadine]
reduction of LID ([1]; amantadine 40 mg/kg IP with L-Dopa 25 mg/kg IP on day 21, did not reach significance): roughly 30%
inhibition of dyskinesia [6]: 23%
